Measurements reported in paper PMC7448123, “Ru(II) Complexes Bearing O, O-Chelated Ligands Induced Apoptosis in A549 Cells through the Mitochondrial Apoptotic Pathway” (Bioinorganic Chemistry and Applications, 2020).

How the values were obtained:
E. histolytica = test system: E. histolytica; set-up: method as in PMID 17154516; details: read-out: IC50 anti-E. histolytica activity in vitro; cited from earlier work
[1] = test system: A549 (human lung carcinoma); test: MTT cytotoxicity assay, A549; format: cell-based; details: 48 h, MTT
Protocol: (§1) All cell lines were cultured in Roswell Park Memorial Institute 1640 culture media supplemented with 10% fetal bovine serum and incubated at 37°C in a 5% CO2 incubator. The IC50 values in Table 1 were measured by MTT assay according to our previous report [16].
(§2) The cell viability was obtained by the MTT assay.

[2] = test system: HepG2 (human hepatocellular carcinoma); test: MTT cytotoxicity assay, HepG2; format: cell-based
Protocol: as §1, §2

MCF-7 (breast cancer) = test: MTT cytotoxicity assay, MCF-7; format: cell-based, human
Protocol: as §1, §2

[3] = test system: HeLa (human cervical cancer); test: MTT cytotoxicity assay, HeLa; format: cell-based; details: 48 h
Protocol: as §1, §2

Compound	IC50 (E. histolytica)	IC50 [1]	IC50 ([2]; 48 h)	IC50 (MCF-7 (breast cancer); 48 h)	IC50 [3]	IC50 ([1]; Homo sapiens, A549)	IC50 ([2]; Homo sapiens, HepG2, 48 h)	IC50 (MCF-7 (breast cancer); Homo sapiens, MCF7, 48 h)	IC50 ([3]; Homo sapiens, HeLa)
CC(=O)C=C(C)[O-].[Cl-].[Ru+2].c1ccc(CCSCCSCCc2ccccn2)nc1 [[Ru(acac)(pdto)]Cl]	0.06 µM	–	–	–	–	–	–	–	–
Cc1ccc2ccc3ccc(C)nc3c2n1.Cc1ccc2ccc3ccc(C)nc3c2n1.[Cl-].[Cl-].[Ru+2] [Ru(dmp)2Cl2, cis-[Ru(dmp)2Cl2]]	–	> 200 µM	169 ± 6.2 µM	> 200 µM	> 200 µM	–	–	–	–
[Cl-].[Cl-].[Ru+2].c1ccc(-c2ccnc3c2ccc2c(-c4ccccc4)ccnc23)cc1.c1ccc(-c2ccnc3c2ccc2c(-c4ccccc4)ccnc23)cc1 [Ru(dip)2Cl2, cis-[Ru(dip)2Cl2]]	–	138 ± 6.7 µM	108 ± 5.4 µM	135 ± 7.9 µM	116 ± 6.8 µM	–	–	–	–
O=C(O)c1ccccc1O [SA, salicylic acid]	–	–	–	–	–	> 200 µM	> 200 µM	> 200 µM	> 200 µM
